Common to all, as to assay: growth of human tumour cells (NCI), 48 h
The subject of experiment [1] is OVCAR-4 ovarian.
Experiment [2] relates to A498 renal.
Experiment [3] deals with TK-10 renal.
Experiment [4] concerns SR leukemia.
Experiment [5] relates to NCI-H460 lung.
In experiment [6] the test system is UACC-257 melanoma.
The test system of experiment [7] is SK-MEL-2 melanoma.
Experiment [8] concerns PC-3 prostate.
The subject of experiment [9] is MDA-MB-231 breast.
Experiment [10] deals with T-47D breast.

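Growth conditions: 96-well plates. Treatment: test compound, 48 hours, 5 concentrations. Analysis: linear interpolation between bracketing concentrations; unreached endpoints set to highest concentration. GI50 is the concentration that inhibits growth by half. TGI: concentration producing complete growth inhibition.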

Results on 30 compounds are retold here after PubChem BioAssay (NCI).

On to `CCCC(Sc1ccccc1)P(=O)(c1ccccc1)c1ccccc1` (configuration not stated), for which the TGI in [1] was > 100 µM; in [2], > 100 µM; in experiment [3], > 100 µM; in experiment [4], 66.4 µM; in [5], > 100 µM; in experiment [6], > 100 µM.
Turning to `C1CCOC2(CCC3(CC2)OCCCCO3)OC1`, the TGI in [1], in experiment [2], in [7], in experiment [3], in experiment [4] and in [5] was > 100 µM in each case. For the same compound, the TGI in [6] was > 100 µM.
As for `CC(=O)NC1CC2Oc3ccc(C)cc3C(C)(O2)C1O` (configuration not stated), the TGI in [7], in experiment [3], in experiment [5] and in experiment [6] was > 100 µM throughout.
Take `C=C1CCC2[C@@H](CCC3[C@]2(C)CCC[C@]3(C)C(=O)OC)C1CCO` (some centres not stated): the TGI was 26.6 µM in experiment [1]; 30.6 µM in [2]; 36.6 µM in experiment [7]; 34.1 µM in [3]; 37.2 µM in [5]; 18.6 µM in experiment [6].
In the case of `O=c1[nH]c(-c2ccc(-c3nc4cc([N+](=O)[O-])ccc4c(=O)[nH]3)cc2)nc2cc([N+](=O)[O-])ccc12`, the TGI in [1] is > 100 µM; in experiment [2] it was 31.3 µM; in experiment [7], > 100 µM; in experiment [3] it was > 100 µM; in experiment [4], > 100 µM; in [5] it was > 100 µM. Further, the TGI in experiment [6] is > 100 µM.
As for `C/C=C/C=C/CCCCCCCCCCCCCC1(OC)C=CC(CC(=O)OC)OO1` (configuration not stated), the GI50 in [1] is 1.15 µM; in [3], 2.26 µM. In addition, the TGI worked out at 2.48 µM in experiment [1]; 39 µM in experiment [7]; 4.81 µM in [3]; 7.13 µM in [4]; 29.4 µM in [5]; 35.4 µM in [6].
For `C=CCC(OCCOCC)c1cc(OCCOCC)ccc1OC` (configuration not stated), the TGI in [1], in [7], in experiment [3], in experiment [5] and in [6] was > 100 µM throughout.
With `CCCOC(=O)CCn1c(SC)nc2[nH]cc(-c3ccccc3)c2c1=O`, the GI50 in experiment [1] was 29.2 µM; in experiment [8], 14.6 µM; in experiment [2], 27.9 µM; in experiment [7], 25.5 µM; in [9], 38.3 µM; in experiment [3], 47.3 µM. For the same compound, the GI50 in experiment [5] was 13.4 µM; in [10], 11.7 µM; in experiment [6], 33.8 µM. The TGI in experiment [1] was 95.8 µM; in [8], 50.1 µM; in [2] it was 87.9 µM; in [7] it was 63.5 µM; in experiment [9], > 100 µM; in experiment [3], > 100 µM. Besides, the values for the TGI in experiment [5], in experiment [10] and in [6] were > 100 µM, 62 µM and > 100 µM, respectively.
As for `O=C(CN(/C=C/C(=O)C(F)(F)F)c1ccccc1)c1ccc(Cl)c(Cl)c1`, the GI50 in experiment [1] was 20.3 µM; in [8] it was 13.3 µM; in experiment [2], 14.2 µM; in [7], 12.4 µM; in experiment [9], 12.8 µM; in [3] it was 15.9 µM. Moreover, the GI50 in experiment [5] was 17.5 µM; in experiment [10], 15.8 µM; in [6], 13.4 µM. Moreover, the TGI in experiment [1] came out at 45.6 µM; in experiment [8], 26.9 µM; in experiment [2], 27.4 µM; in [7], 26.6 µM; in experiment [9], 26.3 µM; in experiment [3], 32.8 µM. Further, the TGI in [5] turned out to be 44.9 µM; in experiment [10], 55.7 µM; in experiment [6] it was 27.4 µM.
Consider `Cc1ccc(Sc2ccc(C)cc2[N+](=O)[O-])c([N+](=O)[O-])c1`, for which the TGI in [1] was > 100 µM; in [2], > 100 µM; in [7], > 100 µM; in experiment [3] it was > 100 µM; in [5], > 100 µM; in experiment [6], > 10 µM.
For `Cc1c(Cl)cccc1NC1=C(Cl)C(=O)N(Cc2ccccc2)C1=O`, the GI50 in [1] is 15.5 µM; in [8], 4.85 µM; in experiment [2], 11.7 µM; in experiment [7] it was 27.5 µM; in experiment [3] it was 2.87 µM; in experiment [5] it was 11 µM. The GI50 in [10] is 25.4 µM. Besides, the TGI in [1] is 34 µM; in experiment [8] it was 19 µM; in experiment [2], 24.8 µM; in [7], 89.9 µM; in [3], 15.3 µM; in [5], 30.2 µM. Moreover, in experiment [10], the TGI was > 100 µM.
As to `O=C(Nc1nc(=S)c2c(ncn2CCO)[nH]1)c1ccccc1`, the TGI in experiment [1], in experiment [2], in [7], in experiment [3], in [4] and in experiment [5] was > 100 µM each time. Further, the TGI in [6] was > 100 µM.
Take `N=C(N)c1ccc(COc2ccccc2OCc2ccc(C(=N)N)cc2)cc1`: the GI50 is 92 µM in experiment [1]; 36.3 µM in experiment [8]; > 100 µM in experiment [7]; 32.9 µM in [9]; 34.3 µM in [3]; 20.9 µM in [5]. Besides, the figures for the GI50 in experiment [10] and in experiment [6] were 58.4 µM and > 100 µM, respectively. For the same compound, the TGI in [1], in [8], in experiment [7], in experiment [9], in experiment [3] and in [5] was > 100 µM each time. Further, the TGI in experiment [10] and in experiment [6] was > 100 µM in each case.
For the compound `COc1cc(C)c(O)c(C(=O)O)c1`, the TGI in [1], in experiment [2], in experiment [7], in [3], in [4] and in experiment [5] was > 100 µM each time. The TGI in experiment [6] is > 100 µM.
As to `CCOC(=O)C1=C(Nc2cccc3ccccc23)OC/C1=N\NC(=O)c1ccccc1O`, the TGI is > 59.1 µM in experiment [1]; 70.6 µM in experiment [2]; > 100 µM in experiment [7]; > 100 µM in experiment [3]; 41.4 µM in [4]; > 71.4 µM in experiment [5]. This compound yielded a TGI in experiment [6] of 77.1 µM.
For `COC(=O)C1=C(C(=O)OC)SC(=C(N=Nc2ccccc2)c2ccccc2)S1`, the TGI in [1], in experiment [2], in experiment [7], in experiment [3], in experiment [4] and in experiment [5] was > 100 µM throughout. The TGI in experiment [6] is > 100 µM.
On to `C=C1CCc2occ(C)c2C2C1C1=C(CC(C)C1=O)C1OC12C` (configuration not stated), for which the TGI in experiment [1], in [2], in [7], in experiment [3], in experiment [5] and in experiment [6] was > 100 µM each time.
On to `CCCCNC(=O)NS(=O)(=O)c1ccc(N2N=C(c3cc(C)ccc3C)CC2c2cc(OC)c(OC)c(OC)c2)cc1` (configuration not stated), for which the GI50 in experiment [1] was 2.52 µM; in experiment [8], 1.94 µM; in [2], 2.31 µM; in [7], 2.2 µM; in experiment [9], 2.36 µM; in [3] it was 3.44 µM. For the same compound, the GI50 in experiment [5] is 2.46 µM; in experiment [10], 3.91 µM; in experiment [6], 3.39 µM. For the same compound, the TGI is 14.5 µM in experiment [1]; 10.4 µM in [8]; 6.01 µM in [2]; 4.84 µM in experiment [7]; 6.39 µM in [9]; 10.7 µM in experiment [3]. Also, the TGI in experiment [5] was determined as 5.96 µM; in [10], 18.4 µM; in experiment [6], 12.9 µM.
In the case of `Cc1ccc2c(c1)C(=O)c1c-2n(CCCBr)c(=O)c2cc([N+](=O)[O-])ccc12`, the GI50 in [1] was > 100 µM; in [8], 17.4 µM; in [2], 51.7 µM; in [7], > 100 µM; in [9], 58.8 µM; in experiment [3], > 100 µM. Further, the figures for the GI50 in [5], in experiment [10] and in experiment [6] were 6.43 µM, 7.69 µM and > 100 µM, respectively. For the same compound, the TGI in experiment [1], in experiment [8], in experiment [2], in experiment [7], in experiment [9] and in [3] was > 100 µM throughout. Further, the TGI in [5] is > 100 µM; in experiment [10], 60.8 µM; in experiment [6] it was > 100 µM.
For `CC1CCC(C(C)C)C(O[C@@H]2OC(=O)C[C@@H]2Sc2ccccc2)C1` (some centres not stated), the TGI is 41.9 µM in experiment [1]; 74.7 µM in experiment [2]; 34.9 µM in experiment [7]; > 100 µM in experiment [3]; 69.5 µM in experiment [5]; 39.3 µM in experiment [6].
Turning to `O=C1c2ccccc2CC1C1(O)C(=O)Nc2ccccc21` (configuration not stated), the TGI in experiment [1], in experiment [2], in experiment [7], in [3], in [5] and in [6] was > 100 µM throughout.
Take `CCOC(=O)c1nc(-c2ccccc2)oc1OCC`: the TGI in experiment [1], in [3] and in experiment [5] was > 100 µM throughout.
With `N.N.NCCCCCCN.O=C([O-])CC(=O)[O-].O=C([O-])CC(=O)[O-].[Pt+4].[Pt+4]`, the GI50 is > 78.5 µM in [1]; > 100 µM in experiment [2]; > 100 µM in experiment [7]; > 100 µM in [3]; > 41.9 µM in experiment [4]; 6.59 µM in experiment [5]. For the same compound, the GI50 in experiment [6] was > 100 µM. Also, the TGI in experiment [1], in experiment [2], in experiment [7], in [3], in experiment [4] and in experiment [5] was > 100 µM in each case. Moreover, the TGI in experiment [6] was > 100 µM.
In the case of `CC12CC(OC(=O)[C@]1(C)O)[C@@H]([C@]1(O)CC[C@H]3[C@@H]4C[C@H]5O[C@]56[C@@H](O)C=CC(=O)[C@]6(C)[C@H]4CC[C@@]31C)C2` (some centres not stated), the TGI in experiment [1] was found to be 24.4 µM; in experiment [8], 26.5 µM; in experiment [2], 33.2 µM; in experiment [7], 21 µM; in [9], 16.7 µM; in experiment [3], 20.2 µM. Further, the TGI was determined as 32.3 µM in [5], 32.9 µM in [10] and 28.4 µM in [6].
Consider `COc1cc(/C=C/C(=O)c2sc(NNC(C)=O)nc2C)ccc1O`, for which the TGI in experiment [2], in experiment [7], in experiment [3], in [5] and in experiment [6] was > 100 µM in each case.
As to `C[C@@H](NC1CCC[C@H]1O)c1ccccc1` (some centres not stated), the TGI in experiment [1], in experiment [7], in experiment [3], in experiment [5] and in [6] was > 100 µM throughout.
On to `COC(=O)C1=C(O)c2cc3c(cc2[C@H](c2cc(OC)c(OC)c(OC)c2)C1C(=O)OC)OCO3` (some centres not stated), for which the TGI is 83 µM in [1]; > 100 µM in [2]; 89.5 µM in experiment [3]; > 100 µM in [4]; > 100 µM in experiment [5]; > 100 µM in experiment [6].
On to `O=C1CCC2(c3ccccc3)Nc3ncccc3N12` (configuration not stated), for which the TGI in experiment [1], in [2], in experiment [7], in experiment [3], in experiment [5] and in experiment [6] was > 100 µM in each case.
Take `COC(=O)c1cc(-c2cccn2C)c2c(c1C(=O)OC)c1ccccc1n2C`: the TGI in experiment [1], in experiment [7], in experiment [3], in [4], in experiment [5] and in experiment [6] was > 100 µM throughout.
As to `N#Cc1cc([N+](=O)[O-])ccc1NC(=O)/C(=N/N)C(C(=O)c1ccc(Cl)c(Cl)c1)C1OC(=O)c2ccccc21` (configuration not stated), the TGI in [1], in [2], in [7], in experiment [4], in experiment [5] and in [6] was > 100 µM each time.
